Laboratory results reported in patent US20030095953A1, “METHODS OF REVERSING DRUG RESISTANCE IN CANCER CELLS” (priority 1999, published 2003).
Counter-ions that a name gives are not always drawn. Like-named read-outs stand apart in the source and are kept apart here.

Tests used:
Type in all cases: cell-based, human
MCF-7-AdrR cells [1] = assay: Cytotoxicity assay in MCF-7-AdrR cells; settings: 72 hr exposure, read-out: EC50 (amount of drug provoking 50% cell death)
Experimental: (§1) Cytotoxicity Assay. Assays were performed as previously described (Liu, Y. Y., et al., (1999) J. Biol. Chem. 274, 1140-1146; Lavie, Y. et al., (1997) J. Biol. Chem. 272, 1682-1687). Briefly, cells were seeded in 96-well plates (2,000 cells/well), in 0.1 ml RPMI-1640 medium containing 10% FBS, and cultured at 37° C. for 24 hr before addition of drug. Drugs were added in FBS-free medium (0.1 ml), and cells were cultured at 37° C. for the indicated periods. Drug cytotoxicity was determined using the Promega 96 Aqueous cell proliferation assay kit (Promega, Madison, Wis.). Absorbance at 490 nm was recorded using a Microplate Fluorescent Reader, model FL600 (Bio-Tek, Winooski, Vt.).

MCF-7-AdrR/asGCS cells [2] = assay: Cytotoxicity assay in MCF-7-AdrR/asGCS cells; settings: 72 hr exposure; for EC50: Homo sapiens, MCF-7-AdrR/asGCS cells, read-out: EC50 (amount of drug provoking 50% cell death)
Experimental: as §1

caspase-3 [3] = assay: Caspase-3 assay (DEVD-AFC cleavage) in MCF-7-AdrR cells; settings: 10 μM, 48 hr
Experimental: (§2) Caspase-3 Assay. Caspase-3 activity was assayed by DEVD-AFC cleavage, using the ApoAlert Caspase-3 assay kit (Clontech, Palo Alto, Calif.). The assay was performed as previously described (Liu, Y. Y., et al., (1999) Exp. Cell Res. 252, 464-470). Cells were seeded in 100-mm dishes (500,000 cells/dish) in 10% FBS RPMI-1640 medium. After 24 hr, cells were shifted to 5% FBS RPMI-1640 medium without or with adriamycin, and grown for 24 and 48 hr. Following harvest, cells ([…]) were lysed on ice for 10 min with 50 μl of lysis buffer, and cell debris was removed by centrifugation at 4° C., 10,000×g, for 5 min. The soluble fraction was incubated with 50 μM conjugated substrate DEVD-AFC in a 100 μl reaction volume at 37° C., for 60 min. The free AFC fluoresce was measured at λexcitation 400 nm and λemission 505 nm using a FL600 Microplate Fluorescence Reader. The caspase-3 inhibitor, acetyl-Asp-Glu-Val-Asp-aldehyde was used to exclude nonspecific background in the enzymatic reaction.

caspase-3 [4] = assay: Caspase-3 assay (DEVD-AFC cleavage) in MCF-7-AdrR/asGCS cells; settings: for increase of caspase-3 activity over control: MCF-7-AdrR/asGCS cells, 10 μM; for caspase-3 activity in GCS antisense-transfected cells vs parental cells: adriamycin 10 μM
Experimental: as §2

MCF-7-AdrR/asGCS cells [5] = assay: Analysis of ceramide in MCF-7-AdrR/asGCS cells
Experimental: (§3) Analysis of Ceramide. Analysis was performed as previously described (Liu, Y. Y.et al., (1999) J. Biol. Chem. 274, 1140-1146, Lavie, Y., et al., (1996) J. Biol. Chem. 271, 19530-19536). Cells were seeded in 6-well plates (60,000 cells/well) in 10% FBS RPMI-1640 medium. After 24 hr, cells were shifted to 5% FBS medium with or without adriamycin, and grown for the indicated times. Cellular lipids were radiolabeled by adding [3H]palmitic acid (2.5 μCi/ml culture medium) for 24 hr. After removal of medium, cells were rinsed twice with PBS (pH 7.4), and total lipids were extracted as described (Lavie, Y. et al.,. (1996) J. Biol. Chem. 271, 19530-19536). The resulting organic lower phase was withdrawn and evaporated under a stream of nitrogen. Lipids were resuspended in 100 μl of chloroform/methanol (1:1, v/v), and aliquots were applied to TLC plates. Ceramide was resolved using a solvent system containing chloroform/acetic acid (90:10, v/v). Commercial lipid standards were co-chromatographed. After development, lipids were visualized by iodine vapor staining, and the ceramide area was scraped into 0.5 ml water. EcoLume counting fluid (4.5 ml) was added, the samples were mixed, and radioactivity was quantitated by liquid scintillation spectrometry.

MCF-7-AdrR cells [6] = assay: Analysis of ceramide in MCF-7-AdrR cells; settings: 48 hr
Experimental: as §3

| SMILES | EC50 (MCF-7-AdrR cells [1]; Homo sapiens, 72 h) [µM] | decrease of EC50 in MCF-7-AdrR/asGCS vs MCF-7-AdrR cells (MCF-7-AdrR/asGCS cells [2]) [fold] | EC50 (MCF-7-AdrR/asGCS cells [2]) [µM] | EC50 (MCF-7-AdrR cells [1]; hydrochloride) [µM] | increase of caspase-3 activity (caspase-3 [3]) [%] | increase of caspase-3 activity over control (caspase-3 [4]; 24 hr) [%] | increase of caspase-3 activity over control (caspase-3 [4]; 48 hr) [%] | caspase-3 activity in GCS antisense-transfected cells vs parental cells (caspase-3 [4]; 24 hr) [fold] | caspase-3 activity in GCS antisense-transfected cells vs parental cells (caspase-3 [4]; 48 hr) [fold] | enhancement of ceramide levels (MCF-7-AdrR/asGCS cells [5]; adriamycin 0.5 μM, 48 hr) [%] | enhancement of ceramide levels (MCF-7-AdrR/asGCS cells [5]; adriamycin 1.0 μM, 48 hr) [%] | increase of ceramide levels (MCF-7-AdrR/asGCS cells [5]; adriamycin 2.5 μM, 24 hr) [%] | increase of ceramide levels (MCF-7-AdrR/asGCS cells [5]; adriamycin 2.5 μM, 48 hr) [%] | enhancement of ceramide levels (MCF-7-AdrR/asGCS cells [5]; adriamycin 2.5 μM, 48 hr (dose series)) [%] | increase of ceramide levels above control (MCF-7-AdrR cells [6]; adriamycin 2.5 μM) [%] | ceramide level response (MCF-7-AdrR cells [6]; adriamycin 0.5-2.5 μM) |
| --- | --- | --- | --- | --- | --- | --- | --- | --- | --- | --- | --- | --- | --- | --- | --- | --- |
| CCCCCCCCCCCCC/C=C/[C@@H](O)[C@H](CO)NC(=O)CCCCC [C6-ceramide, N-hexanoylsphingosine] | 9.6 ± 0.5 | 2.4 | 4 ± 0.03 | – | – | – | – | – | – | – | – | – | – | – | – | – |
| COc1cccc2c1C(=O)c1c(O)c3c(c(O)c1C2=O)C[C@@](O)(C(=O)CO)C[C@@H]3O[C@H]1C[C@H](N)[C@H](O)[C@H](C)O1 [adriamycin, doxorubicin hydrochloride] | 12.4 ± 0.7 | 28 | 0.44 ± 0.01 | 10 | 160 | 290 | 980 | 3 | 6 | 181 | 188 | 200 | 250 | 246 | 16 | minimal response |
